Laboratory results from patent US6265423A, “Aromatic polycyclic retinoid-type derivatives, method for preparing same, and use thereof for making pharmaceutical and cosmetic compositions” (priority 1996, dated 2001).

Key:
[1] = tested on: ZR-75-1 human mammary cancer cells; assay: MTT test, proliferation of ZR-75-1; assay type: cell-based; conditions: for activity at 100 µM / activity at 1 µM / activity at 0.01 µM: Homo sapiens, 72 h, control = 100%, read-out: level of proliferation; for activity at 100 µM: ZR-75-1, 10^-4 M; for activity at 1 µM: ZR-75-1, 10^-6 M; for activity at 0.01 µM: ZR-75-1, 10^-8 M
Summary of the method: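 After 24 h seeding, cells in MEM with 5% decomplemented FCS at 37° C were exposed to compound at 10^-8 M, 10^-6 M and 10^-4 M. Viability was assessed by MTT reduction to formazan, dissolved in DMSO. Mean optical density is expressed as % of untreated control (100%), in 6 duplicates.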

[2] = tested on: A549 human pulmonary cancer cells; assay: MTT test, proliferation of A549; assay type: cell-based; conditions: for activity at 100 µM / activity at 1 µM / activity at 0.01 µM: Homo sapiens, 72 h, control = 100%, read-out: level of proliferation; for activity at 100 µM: A549, 10^-4 M; for activity at 1 µM: A549, 10^-6 M; for activity at 0.01 µM: A549, 10^-8 M; for effect on cellular increase, A549 (in words): MTT test
[3] = tested on: Gal4-RARβ; assay: Transactivation, chimerical receptor Gal4-RARβ (transitory transfection of HeLa); assay type: cell-based; conditions: 100% = TTNPB 10^-8 M
[4] = tested on: Gal4-RARγ; assay: Transactivation, chimerical receptor Gal4-RARγ (transitory transfection of HeLa); assay type: cell-based; conditions: 100% = TTNPB 10^-8 M
[5] = tested on: RARγ-ERcassette; assay: Transactivation, chimerical receptor RARγ-ERcassette (HeLa); assay type: cell-based; conditions: TTNPB 10^-8 M = 100
Summary of the method: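 HeLa cells were transiently co-transfected by calcium phosphate co-precipitation with […] chimeric receptor plasmid (RAR DNA-binding C domain replaced by the oestrogen receptor's; A, B, D, E, F regions kept), […] ERE-luciferase reporter and […] CMV-β-galactosidase control. Compounds were applied 24 h later for 16 h.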

[6] = tested on: response element RARE of RARβ gene, endogenic retinoic receptors, HRLN lineage; assay: HRLN transactivation (RARE-luciferase, stably transfected HeLa); assay type: cell-based; conditions: for Emax: Homo sapiens, HeLa, read-out: HRLN transactivation, E max
Summary of the method: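 HeLa cells stably carrying a RARE3-tk-Luc reporter (natural RARβ RARE, GGTTCAnnnnnAGTTCA) report activation by endogenous RARs/RXRs. Assays run in duplicate in phenol red-free DMEM with 3% dextran-charcoal-treated FCS, protected from light; luciferase read-out.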

[7] = tested on: RAR and RXR receptors; assay: RAR/RXR activity profile drawn from the models; assay type: cell-based
Source text: The reference molecules have allowed one to show the effectiveness and the complementary nature of the different models used and lead to the following conclusions: chimerical constructions GAL-RAR and RAR-ERcassette allow the determination of the RAR agonist profile of molecules, but also an RXR agonist activity with RAR-ERcassette, the HRLN lineage mainly conveys the activity of a compound mediated by endogenic RARα, the HRL+N lineage also provides evidence of an RXR agonist activity of the retinoids, the anti-oestrogenic effect of the retinoids (oestrogen-induced cellular proliferation and MELN lineage) is mediated by RARα, the anti-AP-1 effect is mediated in the MCF-7 cells (MTLN lineage) by RARα, RARγ and RXRα, and an additive effect exists between the RAR and RXR routes.

[8] = tested on: A-427 human pulmonary cancer cells; assay: MTT test, proliferation of A-427; conditions: for activity at 0.01 µM / activity at 1 µM / activity at 100 µM: Homo sapiens, A-427, 72 h, read-out: level of proliferation; for effect on cellular increase, A-427 (in words): MTT test

**Q.** With `C/C(=C/c1ccc2c(c1)C(C)(C)CCC2(C)C)c1ccc(-c2nnn[nH]2)cc1` [CB92834] as the compound, how does the activity at 100 µM [1] read?
**A.** 18.7%

**Q.** What about the activity at 1 µM [1] of the same compound?
**A.** 39.9%

**Q.** And the activity at 0.01 µM [1]?
**A.** 27.9%

**Q.** And the “effect on cellular increase, ZR-75-1 (in words)” value ([1]; MTT test)?
**A.** strongly inhibitive activity on the cellular increase of the two lineages

**Q.** And the activity at 100 µM [2]?
**A.** 14.4%

**Q.** And the activity at 1 µM [2]?
**A.** 109%

**Q.** And the activity at 0.01 µM [2]?
**A.** 105%

**Q.** And the “effect on cellular increase, A549 (in words)” value [2]?
**A.** show activity on the increase of these two lineages

**Q.** What about the “GAL4-RAR RARβ transactivation” value ([3]; 10^-6 M) of the same compound?
**A.** 0%

**Q.** What about the “GAL4-RAR RARγ transactivation” value ([4]; 10^-6 M) of the same compound?
**A.** 2%

**Q.** What about the “RAR-ERcassette RARγ transactivation” value ([5]; 10^-6 M) of the same compound?
**A.** 0%

**Q.** What about the “RAR-ERcassette RARγ transactivation” value ([5]; 10^-7 M) of the same compound?
**A.** 7%

**Q.** And the “RAR-ERcassette RARγ transactivation” value ([5]; 10^-8 M)?
**A.** 2%

**Q.** And the “HRLN transactivation (in words)” value [6]?
**A.** very feebly active

**Q.** And the Emax [6]?
**A.** 21%

**Q.** And the “RAR/RXR activity profile (in words)” value [7]?
**A.** RXR specific activity

**Q.** What about the activity at 0.01 µM [8] of the same compound?
**A.** 80.5%

**Q.** What about the activity at 1 µM [8] of the same compound?
**A.** 78.3%

**Q.** And the activity at 100 µM [8]?
**A.** 3.1%

**Q.** What about the “effect on cellular increase, A-427 (in words)” value [8] of the same compound?
**A.** show activity on the increase of these two lineages

**Q.** What does the source list for `CC1(C)CCC(C)(C)c2cc(/C=C(\c3ccc(C(=O)O)cc3)C(F)(F)F)ccc21` [CB36493, (E) 4-[1-trifluoromethyl-2-(5,6,7,8-tetrahydro-5,5,8,8-tetramethyl-2-naphthalenyl)-1-ethenyl]benzoic acid]?
**A.** activity at 100 µM [1]: 8.6%; activity at 1 µM [1]: 108%; activity at 0.01 µM [1]: 108%; activity at 100 µM [2]: 10.4%; activity at 1 µM [2]: 93.7%; activity at 0.01 µM [2]: 98.5%; GAL4-RAR RARβ transactivation ([3]; 10^-6 M): 44%; GAL4-RAR RARγ transactivation ([4]; 10^-6 M): 50%; RAR-ERcassette RARγ transactivation ([5]; 10^-6 M): 26%; RAR-ERcassette RARγ transactivation ([5]; 10^-7 M): 5%; RAR-ERcassette RARγ transactivation ([5]; 10^-8 M): 0%; HRLN transactivation (in words) [6]: induce a transactivation close to that of TTNPB; Emax [6]: 97%; RAR/RXR activity profile (in words) [7]: panagonistic; activity at 0.01 µM [8]: 89.9%; activity at 1 µM [8]: 87.2%; activity at 100 µM [8]: 1.6%

**Q.** With `C/C(=C/c1ccc2c(c1)C(C)(C)CCC2(C)C)c1ccc(C(=O)O)cn1` [CB38416, (Z) 2-[1-(5,6,7,8-tetrahydro-5,5,8,8-tetramethyl-2-naphthalenyl)-2-propenyl]pyridinyl-5-carboxylic acid] as the compound, how does the activity at 100 µM [1] read?
**A.** 55.8%

**Q.** And the activity at 1 µM [1]?
**A.** 98.3%

**Q.** What about the activity at 0.01 µM [1] of the same compound?
**A.** 122%

**Q.** And the activity at 100 µM [2]?
**A.** 109%

**Q.** And the activity at 1 µM [2]?
**A.** 105%

**Q.** What about the activity at 0.01 µM [2] of the same compound?
**A.** 126%

**Q.** What about the “GAL4-RAR RARβ transactivation” value ([3]; 10^-6 M) of the same compound?
**A.** 51%

**Q.** What about the “GAL4-RAR RARγ transactivation” value ([4]; 10^-6 M) of the same compound?
**A.** 99%

**Q.** And the “RAR-ERcassette RARγ transactivation” value ([5]; 10^-6 M)?
**A.** 62%

**Q.** And the “RAR-ERcassette RARγ transactivation” value ([5]; 10^-7 M)?
**A.** 14%

**Q.** What about the “RAR-ERcassette RARγ transactivation” value ([5]; 10^-8 M) of the same compound?
**A.** 4%

**Q.** What about the “HRLN transactivation (in words)” value [6] of the same compound?
**A.** induce a transactivation close to that of TTNPB

**Q.** And the Emax [6]?
**A.** 81%

**Q.** And the “RAR/RXR activity profile (in words)” value [7]?
**A.** panagonistic

**Q.** And the activity at 0.01 µM [8]?
**A.** 106%

**Q.** What about the activity at 1 µM [8] of the same compound?
**A.** 105%

**Q.** And the activity at 100 µM [8]?
**A.** 24.1%

**Q.** How did the “GAL4-RAR RARβ transactivation” value ([3]; 10^-6 M) turn out when `C/C(=C/c1ccc2c(c1)C(C)(C)CCC2(C)C)c1ccc(C(=O)O)nc1` [CB16279, (Z) 5-[1-(5,6,7,8-tetrahydro-5,5,8,8-tetramethyl-2-naphthalenyl)-2-propenyl]pyridinyl-2-carboxylic acid] was run?
**A.** 47%

**Q.** What about the “GAL4-RAR RARγ transactivation” value ([4]; 10^-6 M) of the same compound?
**A.** 59%

**Q.** And the “RAR-ERcassette RARγ transactivation” value ([5]; 10^-6 M)?
**A.** 71%

**Q.** And the “RAR-ERcassette RARγ transactivation” value ([5]; 10^-7 M)?
**A.** 15%

**Q.** What about the “HRLN transactivation (in words)” value [6] of the same compound?
**A.** induce a transactivation close to that of TTNPB

**Q.** What about the “RAR/RXR activity profile (in words)” value [7] of the same compound?
**A.** panagonistic

**Q.** With `CC1(C)CCC(C)(C)c2cc(/C=C(\c3ccc(-c4nnn[nH]4)cc3)C(F)(F)F)ccc21` [CB77402, (E) 5-[4-[1-trifluoromethyl-2-(5,6,7,8-tetrahydro-5,5,8,8-tetramethyl-2-naphthalenyl)-1-ethenyl]phenyl]-1H-tetrazole] as the compound, how does the activity at 100 µM [1] read?
**A.** 7.5%

**Q.** And the activity at 1 µM [1]?
**A.** 96.6%

**Q.** And the activity at 0.01 µM [1]?
**A.** 99.9%

**Q.** And the activity at 100 µM [2]?
**A.** 10.7%

**Q.** What about the activity at 1 µM [2] of the same compound?
**A.** 86%

**Q.** What about the activity at 0.01 µM [2] of the same compound?
**A.** 93.1%

**Q.** What about the “effect on cellular increase, A549 (in words)” value [2] of the same compound?
**A.** show activity on the increase of these two lineages

**Q.** And the “GAL4-RAR RARβ transactivation” value ([3]; 10^-6 M)?
**A.** 0%

**Q.** What about the “GAL4-RAR RARγ transactivation” value ([4]; 10^-6 M) of the same compound?
**A.** 0%

**Q.** What about the “RAR-ERcassette RARγ transactivation” value ([5]; 10^-6 M) of the same compound?
**A.** 8%

**Q.** What about the “RAR-ERcassette RARγ transactivation” value ([5]; 10^-7 M) of the same compound?
**A.** 0%

**Q.** What about the “RAR-ERcassette RARγ transactivation” value ([5]; 10^-8 M) of the same compound?
**A.** 0%

**Q.** And the “HRLN transactivation (in words)” value [6]?
**A.** very feebly active

**Q.** What about the Emax [6] of the same compound?
**A.** 18%

**Q.** And the “RAR/RXR activity profile (in words)” value [7]?
**A.** RXR specific activity

**Q.** What about the activity at 0.01 µM [8] of the same compound?
**A.** 82.3%

**Q.** What about the activity at 1 µM [8] of the same compound?
**A.** 77.6%

**Q.** And the activity at 100 µM [8]?
**A.** 0.2%

**Q.** And the “effect on cellular increase, A-427 (in words)” value [8]?
**A.** show activity on the increase of these two lineages

**Q.** Which results are given for `C/C(=C/c1ccc2c(c1)C(C)(C)CCC2(C)C)c1ccc(C(=O)O)cc1` [CB28628, reference compound]?
**A.** activity at 100 µM [1]: 19.4%; activity at 1 µM [1]: 83.5%; activity at 0.01 µM [1]: 80.8%; activity at 100 µM [2]: 12.4%; activity at 1 µM [2]: 93.4%; activity at 0.01 µM [2]: 109%; GAL4-RAR RARβ transactivation ([3]; 10^-7 M): 102%; GAL4-RAR RARγ transactivation ([4]; 10^-7 M): 106%; RAR-ERcassette RARγ transactivation ([5]; 10^-6 M): 92%; RAR-ERcassette RARγ transactivation ([5]; 10^-7 M): 87%; RAR-ERcassette RARγ transactivation ([5]; 10^-8 M): 55%; Emax [6]: 98%; activity at 0.01 µM [8]: 86.7%; activity at 1 µM [8]: 86.8%; activity at 100 µM [8]: 2.5%
